# Literature values, collected in patent US20060057183A1, “Indwelling stent” (priority 2003, published 2006).
# Test system: human vascular cells
# Settings: Mohacsi et al., J Heart Lung Transplant 1997
structure (smiles),measurement,value
"C=CC[C@@H]1/C=C(\C)C[C@H](C)C[C@H](OC)[C@H]2O[C@@](O)(C(=O)C(=O)N3CCCC[C@H]3C(=O)O[C@H](/C(C)=C/[C@@H]3CC[C@@H](O)[C@H](OC)C3)[C@H](C)[C@@H](O)CC1=O)[C@H](C)C[C@@H]2OC [tacrolimus (FK506), Tacrolimus]",antiproliferative effects on human vascular cells,antiproliferative effects
